In ChEMBL document CHEMBL4680161, “Design and synthesis of α-naphthoflavone chimera derivatives able to eliminate cytochrome P450 (CYP)1B1-mediated drug resistance via targeted CYP1B1 degradation” (Eur J Med Chem, 2020):
pIC50: −log10 of the molar value.

Legend:
[1] = target: von Hippel-Lindau disease tumor suppressor/Cytochrome P450 1B1 (Homo sapiens, UniProt Q16678+P40337); assay: Protac activity at E3 ubiquitin ligase/CYP1B1 (unknown origin) expressed in human DU145 cells assessed as induction of CYP1B1 degradation by immunoblotting analysis; format: cell-based; settings: du-145
von Hippel-Lindau disease tumor suppressor/Cytochrome P450 1B1, sequence (P40337 whole entry, one chain of several): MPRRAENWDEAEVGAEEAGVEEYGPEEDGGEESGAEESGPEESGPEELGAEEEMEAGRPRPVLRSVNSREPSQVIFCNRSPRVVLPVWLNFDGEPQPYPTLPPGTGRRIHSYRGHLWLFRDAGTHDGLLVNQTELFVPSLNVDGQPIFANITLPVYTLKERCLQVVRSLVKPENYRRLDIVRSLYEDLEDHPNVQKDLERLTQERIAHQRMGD

Cytochrome P450 1B1 = target: T1, Cytochrome P450 1B1 (Homo sapiens, UniProt Q16678); assay: Inhibition of recombinant human CYP1B1 expressed in baculovirus infected insect cells using 7-ethoxyresorufin as substrate preincubated for 5 mins followed by NADPH addition and measured after 15 mins by EROD assay
T1 sequence (Q16678 whole entry): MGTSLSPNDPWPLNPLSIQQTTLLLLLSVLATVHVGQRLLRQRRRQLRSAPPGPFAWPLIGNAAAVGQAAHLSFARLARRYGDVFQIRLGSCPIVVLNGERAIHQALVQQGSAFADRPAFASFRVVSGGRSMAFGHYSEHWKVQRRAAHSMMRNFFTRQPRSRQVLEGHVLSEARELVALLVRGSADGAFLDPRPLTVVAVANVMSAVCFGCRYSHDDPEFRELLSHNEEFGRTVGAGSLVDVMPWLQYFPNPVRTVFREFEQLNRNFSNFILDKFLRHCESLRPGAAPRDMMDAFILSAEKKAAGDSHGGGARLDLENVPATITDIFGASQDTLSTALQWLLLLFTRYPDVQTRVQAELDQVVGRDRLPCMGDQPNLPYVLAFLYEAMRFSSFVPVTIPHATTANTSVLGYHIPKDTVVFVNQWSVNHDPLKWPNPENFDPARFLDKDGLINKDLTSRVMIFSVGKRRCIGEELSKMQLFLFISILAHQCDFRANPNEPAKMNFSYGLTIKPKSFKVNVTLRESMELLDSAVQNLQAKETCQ

Cytochrome P450 1A2 = target: T2, Cytochrome P450 1A2 (Homo sapiens, UniProt P05177); assay: Inhibition of recombinant human CYP1A2 expressed in baculovirus infected insect cells using 7-ethoxyresorufin as substrate preincubated for 5 mins followed by NADPH addition and measured after 35 mins by EROD assay; format: ADME
T2 sequence (P05177 whole entry): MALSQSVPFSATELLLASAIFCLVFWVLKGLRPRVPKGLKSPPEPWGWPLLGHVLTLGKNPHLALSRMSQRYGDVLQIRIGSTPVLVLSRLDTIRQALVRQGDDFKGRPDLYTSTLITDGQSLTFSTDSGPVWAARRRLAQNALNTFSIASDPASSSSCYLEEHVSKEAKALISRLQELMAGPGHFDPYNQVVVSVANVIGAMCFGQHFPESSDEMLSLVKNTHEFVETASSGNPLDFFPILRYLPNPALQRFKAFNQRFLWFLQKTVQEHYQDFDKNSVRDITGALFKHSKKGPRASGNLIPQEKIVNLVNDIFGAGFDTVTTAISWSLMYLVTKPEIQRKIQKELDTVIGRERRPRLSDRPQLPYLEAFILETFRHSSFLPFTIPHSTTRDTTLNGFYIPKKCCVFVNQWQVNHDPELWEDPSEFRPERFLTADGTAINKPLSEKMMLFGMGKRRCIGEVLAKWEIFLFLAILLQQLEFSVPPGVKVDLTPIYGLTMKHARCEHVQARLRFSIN

Homo sapiens = organism: Homo sapiens; assay: Selectivity ratio IC50 for inhibition of recombinant human CYP1A2 to inhibition of recombinant human CYP1B1
DU-145 [2] = assay: Cytotoxicity against human DU-145 cells assessed as reduction in cell viability after 48 hrs by MTT assay; format: functional, cell-based; settings: DU-145, 48 h
DU-145 [3] = assay: Cytotoxicity against human DU-145 cells over expressing CYP1B1 assessed as reduction in cell viability after 48 hrs by MTT assay; format: functional, cell-based; settings: DU-145, 48 h
[4] = Selectivity ratio of IC50 for cytotoxicity against human DU-145 cells over expressing CYP1B1 to cytotoxicity against human DU-145 cells; format: functional

Activity [1] | pIC50 (Cytochrome P450 1B1) | pIC50 (Cytochrome P450 1A2) | Compound | Ratio IC50 (Homo sapiens) | pIC50 (DU-145 [2]) | pIC50 (DU-145 [3]) | Ratio IC50 [4]
Not Active | 8.68 | 6.05 | C#Cc1ccc(-c2cc(=O)c3cc(OC)c4c(OC)ccc(OC)c4c3o2)cc1 | 422 |  |  | 
Active | 6.99 | 5.04 | COc1ccc(OC)c2c1c(OC)cc1c(=O)cc(-c3ccc(-c4cn(CCOc5cccc6c5C(=O)N(C5CCC(=O)NC5=O)C6=O)nn4)cc3)oc12 (configuration not stated) | 89.2 |  |  | 
Not Active | < 5.00 | < 5.00 | [N-]=[N+]=NCCCCCOc1cccc2c1C(=O)N(C1CCC(=O)NC1=O)C2=O (configuration not stated) |  |  |  | 
 | < 5.00 | < 5.00 | [N-]=[N+]=NCCCCCCOc1cccc2c1C(=O)N(C1CCC(=O)NC1=O)C2=O (configuration not stated) |  |  |  | 
 | 8.85 | 7.59 | COc1ccc(OC)c2c1c(OC)cc1c(=O)cc(-c3ccccc3)oc12 | 18.4 |  |  | 
Active | 6.82 | 5.07 | COc1ccc(OC)c2c1c(OC)cc1c(=O)cc(-c3ccc(-c4cn(CCCCCOc5cccc6c5C(=O)N(C5CCC(=O)NC5=O)C6=O)nn4)cc3)oc12 (configuration not stated) | 56.1 |  |  | 
 |  |  | CC(=O)O[C@@]12CO[C@@H]1C[C@H](O)[C@@]1(C)C(=O)[C@H](O)C3=C(C)[C@@H](OC(=O)[C@H](O)[C@@H](NC(=O)OC(C)(C)C)c4ccccc4)C[C@@](O)([C@@H](OC(=O)c4ccccc4)[C@H]21)C3(C)C [DOCETAXEL ANHYDROUS] |  | 8.31 | 7.36 | 9
Not Active | < 5.00 | < 5.00 | [N-]=[N+]=NCCCCCCCCOc1cccc2c1C(=O)N(C1CCC(=O)NC1=O)C2=O (configuration not stated) |  |  |  | 
Dose-dependent effect and Tde | 7.02 | 5.01 | COc1ccc(OC)c2c1c(OC)cc1c(=O)cc(-c3ccc(-c4cn(CCCCCCOc5cccc6c5C(=O)N(C5CCC(=O)NC5=O)C6=O)nn4)cc3)oc12 (configuration not stated) | 104 |  |  | 
 | 9.22 | 7.43 | COc1ccc(OC)c2c1c(OC)cc1c(=O)cc(-c3ccc(Cl)cc3)oc12 | 62 |  |  | 
 | 9.40 | 7.32 | COc1ccc(OC)c2c1c(OC)cc1c(=O)cc(-c3ccc(-c4c[nH]nn4)cc3)oc12 | 120 |  |  | 
Not Active | 6.78 | 5.13 | COc1ccc(OC)c2c1c(OC)cc1c(=O)cc(-c3ccc(-c4cn(CCCCCCCCOc5cccc6c5C(=O)N(C5CCC(=O)NC5=O)C6=O)nn4)cc3)oc12 (configuration not stated) | 44.8 |  |  | 
 | < 5.00 | < 5.00 | [N-]=[N+]=NCCOc1cccc2c1C(=O)N(C1CCC(=O)NC1=O)C2=O (configuration not stated) |  |  |  | 
